Format in all cases: biochemical
In one assay the target is HDAC-1 (Homo sapiens, UniProt Q13547). Kind of assay: Enzymatic HDAC inhibition assay (fluorescence), HDAC-1. How it is done: (§1) Enzymatic assays to evaluate HDAC inhibition were performed, and the design involved three steps: (a) Preliminary screening to identify the most promising compounds; (b) Evaluation by a panel of HDAC isoforms to investigate selectivity; and (c) Determination of IC50 values. Firstly, compounds (4–7; 15–26) were evaluated at 10 µM against HDAC-1 and HDAC-2 (Table 2).
Chain of HDAC-1 (Q13547 whole entry, canonical isoform): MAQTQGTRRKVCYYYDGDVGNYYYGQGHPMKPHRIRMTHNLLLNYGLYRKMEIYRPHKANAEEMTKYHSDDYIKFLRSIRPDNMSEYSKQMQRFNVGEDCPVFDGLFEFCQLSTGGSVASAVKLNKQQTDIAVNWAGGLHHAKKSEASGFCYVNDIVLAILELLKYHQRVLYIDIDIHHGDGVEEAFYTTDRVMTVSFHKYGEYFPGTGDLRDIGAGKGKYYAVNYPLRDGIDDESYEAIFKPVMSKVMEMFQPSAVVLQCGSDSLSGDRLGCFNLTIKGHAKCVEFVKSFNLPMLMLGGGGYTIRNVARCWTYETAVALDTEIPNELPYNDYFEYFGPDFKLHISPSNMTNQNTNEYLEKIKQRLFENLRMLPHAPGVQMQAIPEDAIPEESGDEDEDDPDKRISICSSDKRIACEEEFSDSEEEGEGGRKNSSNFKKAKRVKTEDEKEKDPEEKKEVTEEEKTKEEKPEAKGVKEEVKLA
(§2) The enzymatic assay to evaluate HDAC inhibitory effects for all final compounds against the distinct isoforms was carried out in accordance with the previously described procedures (Lopes et al., 2021). All compounds were initially screened at 10 µM against HDAC-1 and HDAC-2. […] All the compounds were dissolved in DMSO. A serial dilution of the compounds was performed in 100% DMSO with the highest concentration at 1 mM. Each intermediate compound dilution (in 100% DMSO) was diluted 10x in assay buffer to form a 10% DMSO intermediate dilution in HDAC assay buffer. 5 µL of this dilution was added to a 50 µL reaction to bring the final concentration of DMSO to 1% in all the reactions. Three independent experiments were carried out in triplicate for all experiments. The fluorescence intensity was measured at an excitation of 360 nm and emission of 460 nm using a Tecan Infinite M1000 microplate reader, and the percentage of activity was calculated using the formula: % activity = (F − Fb)/(Ft − Fb), where F = the intensity of fluorescence in the presence of the compound. In the absence of the test compound, the fluorescent intensity (Ft) in each dataset was defined as 100% activity, while in the absence of HDAC, the fluorescent intensity (Fb) in each dataset was set to 0% activity.

In another assay the target is HDAC-3 (Homo sapiens, UniProt O15379). Kind of assay: Enzymatic HDAC selectivity panel, HDAC-3. To be noted: compound at 10 µM. As to the method:
as §1
as §2, with “Three independent experiments were carried out in triplicate for all experiments.” left out, “In the absence of the test compound, the fluorescent intensity (Ft) in each dataset was defined as 100% activity, while in the absence of HDAC, the fluorescent intensity (Fb) in each dataset was set to 0% activity.” left out

In the next assay the target is HDAC-4 (Homo sapiens, UniProt P56524). Kind of assay: Enzymatic HDAC selectivity panel, HDAC-4. To be noted: compound at 10 µM. How it is done: as §1
Chain of HDAC-4 (P56524 whole entry): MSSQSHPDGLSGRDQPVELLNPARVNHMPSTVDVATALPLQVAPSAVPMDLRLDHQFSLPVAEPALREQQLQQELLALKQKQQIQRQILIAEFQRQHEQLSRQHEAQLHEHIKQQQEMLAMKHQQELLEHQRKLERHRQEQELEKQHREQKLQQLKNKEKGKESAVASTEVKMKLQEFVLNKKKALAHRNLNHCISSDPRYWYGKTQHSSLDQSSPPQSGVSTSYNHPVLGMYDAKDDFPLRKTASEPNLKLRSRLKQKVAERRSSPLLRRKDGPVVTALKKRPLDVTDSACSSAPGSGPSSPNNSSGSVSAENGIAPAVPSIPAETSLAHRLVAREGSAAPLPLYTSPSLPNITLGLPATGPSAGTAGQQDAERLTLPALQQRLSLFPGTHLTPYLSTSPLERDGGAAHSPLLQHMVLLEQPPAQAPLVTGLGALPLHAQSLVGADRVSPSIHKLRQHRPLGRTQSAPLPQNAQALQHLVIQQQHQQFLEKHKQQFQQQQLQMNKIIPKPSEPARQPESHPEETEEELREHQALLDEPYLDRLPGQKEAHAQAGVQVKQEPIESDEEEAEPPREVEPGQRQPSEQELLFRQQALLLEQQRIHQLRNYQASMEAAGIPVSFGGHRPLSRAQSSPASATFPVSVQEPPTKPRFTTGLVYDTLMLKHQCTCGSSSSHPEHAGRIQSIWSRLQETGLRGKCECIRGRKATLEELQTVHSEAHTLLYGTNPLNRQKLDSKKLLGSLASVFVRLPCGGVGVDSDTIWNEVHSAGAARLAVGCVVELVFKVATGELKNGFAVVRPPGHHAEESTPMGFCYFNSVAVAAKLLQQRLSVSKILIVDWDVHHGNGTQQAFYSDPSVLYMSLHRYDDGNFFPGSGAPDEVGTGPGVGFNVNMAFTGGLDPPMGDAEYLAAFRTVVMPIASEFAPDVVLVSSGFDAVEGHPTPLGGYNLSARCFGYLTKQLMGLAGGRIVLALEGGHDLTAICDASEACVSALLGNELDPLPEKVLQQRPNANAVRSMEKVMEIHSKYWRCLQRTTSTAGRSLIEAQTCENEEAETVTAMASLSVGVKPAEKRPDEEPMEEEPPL
as §2, with “Three independent experiments were carried out in triplicate for all experiments.” left out, “In the absence of the test compound, the fluorescent intensity (Ft) in each dataset was defined as 100% activity, while in the absence of HDAC, the fluorescent intensity (Fb) in each dataset was set to 0% activity.” left out

For another assay, the target named is HDAC-5 (Homo sapiens, UniProt Q9UQL6). Kind of assay: Enzymatic HDAC selectivity panel, HDAC-5. The note with it: compound at 10 µM. How it is done: as §1
Chain of HDAC-5 (Q9UQL6 whole entry): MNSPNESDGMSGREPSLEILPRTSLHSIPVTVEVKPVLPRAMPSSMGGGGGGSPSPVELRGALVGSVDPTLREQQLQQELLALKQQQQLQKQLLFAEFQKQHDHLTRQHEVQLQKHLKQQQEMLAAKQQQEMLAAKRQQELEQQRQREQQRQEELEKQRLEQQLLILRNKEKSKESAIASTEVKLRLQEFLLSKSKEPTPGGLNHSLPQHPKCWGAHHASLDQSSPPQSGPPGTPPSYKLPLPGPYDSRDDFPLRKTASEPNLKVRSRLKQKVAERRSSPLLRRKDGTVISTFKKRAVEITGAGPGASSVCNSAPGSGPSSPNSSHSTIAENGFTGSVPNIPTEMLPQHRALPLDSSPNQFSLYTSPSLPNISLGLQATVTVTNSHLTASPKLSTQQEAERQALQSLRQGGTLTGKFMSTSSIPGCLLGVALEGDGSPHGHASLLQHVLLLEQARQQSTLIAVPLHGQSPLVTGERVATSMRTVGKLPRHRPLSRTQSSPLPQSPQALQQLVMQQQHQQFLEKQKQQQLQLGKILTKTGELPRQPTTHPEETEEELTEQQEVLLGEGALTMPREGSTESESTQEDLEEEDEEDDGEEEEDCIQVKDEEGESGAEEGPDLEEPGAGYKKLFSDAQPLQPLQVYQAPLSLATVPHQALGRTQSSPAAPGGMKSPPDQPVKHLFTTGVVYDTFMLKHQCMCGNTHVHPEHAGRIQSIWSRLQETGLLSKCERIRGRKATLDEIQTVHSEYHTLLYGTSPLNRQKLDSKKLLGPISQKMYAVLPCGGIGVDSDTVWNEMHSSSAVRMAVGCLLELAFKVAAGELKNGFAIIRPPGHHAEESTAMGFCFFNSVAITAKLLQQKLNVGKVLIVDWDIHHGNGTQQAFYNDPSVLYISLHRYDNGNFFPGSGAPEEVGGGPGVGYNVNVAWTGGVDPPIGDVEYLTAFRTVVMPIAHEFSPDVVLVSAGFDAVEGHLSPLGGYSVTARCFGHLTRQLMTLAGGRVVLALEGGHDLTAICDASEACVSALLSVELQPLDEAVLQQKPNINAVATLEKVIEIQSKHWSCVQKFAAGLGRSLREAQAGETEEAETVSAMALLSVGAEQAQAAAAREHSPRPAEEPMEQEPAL
as §2, with “Three independent experiments were carried out in triplicate for all experiments.” left out, “In the absence of the test compound, the fluorescent intensity (Ft) in each dataset was defined as 100% activity, while in the absence of HDAC, the fluorescent intensity (Fb) in each dataset was set to 0% activity.” left out

A further assay has as its target T1, HDAC-6 (Homo sapiens, UniProt Q9UBN7).
T1 sequence (Q9UBN7 1-1215): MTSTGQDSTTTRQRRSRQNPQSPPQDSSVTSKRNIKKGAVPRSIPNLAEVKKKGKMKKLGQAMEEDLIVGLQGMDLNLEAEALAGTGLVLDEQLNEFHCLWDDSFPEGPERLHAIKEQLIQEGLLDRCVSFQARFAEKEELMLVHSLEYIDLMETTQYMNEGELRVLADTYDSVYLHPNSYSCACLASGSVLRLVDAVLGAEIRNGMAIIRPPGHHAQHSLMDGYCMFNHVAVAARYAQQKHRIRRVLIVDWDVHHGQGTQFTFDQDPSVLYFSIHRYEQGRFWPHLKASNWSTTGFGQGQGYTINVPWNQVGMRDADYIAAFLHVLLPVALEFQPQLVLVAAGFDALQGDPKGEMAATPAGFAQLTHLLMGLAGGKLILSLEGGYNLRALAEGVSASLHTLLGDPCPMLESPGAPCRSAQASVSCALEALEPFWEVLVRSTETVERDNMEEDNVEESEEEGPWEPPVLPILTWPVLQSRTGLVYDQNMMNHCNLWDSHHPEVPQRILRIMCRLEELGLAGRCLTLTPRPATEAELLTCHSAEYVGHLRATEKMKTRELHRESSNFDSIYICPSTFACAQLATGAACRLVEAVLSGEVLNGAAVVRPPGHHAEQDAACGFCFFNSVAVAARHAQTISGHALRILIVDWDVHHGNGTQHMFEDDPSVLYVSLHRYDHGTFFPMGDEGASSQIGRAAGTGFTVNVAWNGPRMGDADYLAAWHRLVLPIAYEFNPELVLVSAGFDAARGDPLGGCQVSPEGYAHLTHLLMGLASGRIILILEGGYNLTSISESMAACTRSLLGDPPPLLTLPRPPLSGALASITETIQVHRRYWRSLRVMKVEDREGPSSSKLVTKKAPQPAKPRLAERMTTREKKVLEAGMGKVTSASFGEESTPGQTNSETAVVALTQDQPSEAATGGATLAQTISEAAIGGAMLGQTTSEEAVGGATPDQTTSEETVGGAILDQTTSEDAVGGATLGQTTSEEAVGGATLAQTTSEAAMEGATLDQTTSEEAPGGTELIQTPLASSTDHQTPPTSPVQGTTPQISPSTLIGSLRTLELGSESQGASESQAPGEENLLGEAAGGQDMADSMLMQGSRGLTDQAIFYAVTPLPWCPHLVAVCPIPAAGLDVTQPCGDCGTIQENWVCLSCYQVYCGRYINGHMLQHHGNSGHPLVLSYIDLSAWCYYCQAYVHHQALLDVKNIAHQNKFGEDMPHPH
Kind of assay: Enzymatic HDAC selectivity panel, HDAC-6. To be noted: compound at 10 µM. How it is done:
as §1
as §2, with “Three independent experiments were carried out in triplicate for all experiments.” left out, “In the absence of the test compound, the fluorescent intensity (Ft) in each dataset was defined as 100% activity, while in the absence of HDAC, the fluorescent intensity (Fb) in each dataset was set to 0% activity.” left out

A further assay has as its target T2, HDAC-8 (Homo sapiens, UniProt Q9BY41).
T2 sequence (Q9BY41 1-377): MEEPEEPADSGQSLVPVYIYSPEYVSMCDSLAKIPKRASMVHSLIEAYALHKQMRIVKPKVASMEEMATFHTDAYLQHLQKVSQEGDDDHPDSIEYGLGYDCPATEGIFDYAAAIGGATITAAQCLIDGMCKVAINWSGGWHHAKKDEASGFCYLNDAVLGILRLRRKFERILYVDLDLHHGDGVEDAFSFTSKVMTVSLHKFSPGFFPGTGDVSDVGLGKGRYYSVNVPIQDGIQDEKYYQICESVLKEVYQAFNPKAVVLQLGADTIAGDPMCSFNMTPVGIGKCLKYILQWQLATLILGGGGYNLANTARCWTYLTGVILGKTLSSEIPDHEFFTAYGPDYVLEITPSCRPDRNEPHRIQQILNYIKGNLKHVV
As to the kind of experiment: Enzymatic HDAC selectivity panel, HDAC-8. The note with it: compound at 10 µM. How it is done:
as §1
as §2, with “Three independent experiments were carried out in triplicate for all experiments.” left out, “In the absence of the test compound, the fluorescent intensity (Ft) in each dataset was defined as 100% activity, while in the absence of HDAC, the fluorescent intensity (Fb) in each dataset was set to 0% activity.” left out

The next assay has as its target T3, HDAC-11 (Homo sapiens, UniProt Q96DB2).
T3 sequence (Q96DB2 1-347): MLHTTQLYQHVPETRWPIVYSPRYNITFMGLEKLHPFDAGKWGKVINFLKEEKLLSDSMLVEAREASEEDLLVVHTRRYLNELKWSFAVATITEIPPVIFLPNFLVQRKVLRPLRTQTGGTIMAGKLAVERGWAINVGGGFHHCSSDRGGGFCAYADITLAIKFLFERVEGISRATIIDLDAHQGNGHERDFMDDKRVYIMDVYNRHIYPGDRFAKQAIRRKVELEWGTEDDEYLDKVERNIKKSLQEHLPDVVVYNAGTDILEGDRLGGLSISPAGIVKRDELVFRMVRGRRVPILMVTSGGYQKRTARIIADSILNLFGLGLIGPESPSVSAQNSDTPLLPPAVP
As to the kind of experiment: Enzymatic HDAC selectivity panel, HDAC-11. To be noted: compound at 10 µM. As to the method: as §1
as §2, with “Three independent experiments were carried out in triplicate for all experiments.” left out, “In the absence of the test compound, the fluorescent intensity (Ft) in each dataset was defined as 100% activity, while in the absence of HDAC, the fluorescent intensity (Fb) in each dataset was set to 0% activity.” left out

Structures are written as SMILES.

Chain of HDAC-3 (O15379 whole entry): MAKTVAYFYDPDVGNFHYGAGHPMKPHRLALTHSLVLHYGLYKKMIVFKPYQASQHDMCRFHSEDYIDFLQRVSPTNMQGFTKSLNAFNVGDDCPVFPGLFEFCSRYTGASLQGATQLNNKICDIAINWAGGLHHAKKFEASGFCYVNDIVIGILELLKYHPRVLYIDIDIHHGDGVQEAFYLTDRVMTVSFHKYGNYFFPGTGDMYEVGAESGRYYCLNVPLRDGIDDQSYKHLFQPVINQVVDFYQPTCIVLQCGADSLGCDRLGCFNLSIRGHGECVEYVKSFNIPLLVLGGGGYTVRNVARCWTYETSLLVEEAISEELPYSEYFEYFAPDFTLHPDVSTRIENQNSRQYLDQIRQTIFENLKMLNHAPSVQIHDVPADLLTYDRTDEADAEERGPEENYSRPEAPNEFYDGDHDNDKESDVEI
Chain of HDAC-3 (Q9Y618 395-489 partner limits assumed): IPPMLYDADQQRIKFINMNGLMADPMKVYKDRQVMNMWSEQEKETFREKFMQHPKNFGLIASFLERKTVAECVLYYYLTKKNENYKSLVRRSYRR

Broadly, the inhibition is the relative decrease from the control value, in per cent. Usually IC50 stands for the concentration at which inhibition is half-maximal. The low end stands for greater potency, the high end for weaker potency. With `Nc1ccc(CCc2ccc(C(=O)Nc3ccccc3N)cc2)cc1` [Compound (5)], the inhibition at 10 µM against HDAC-1 (compound at 10 µM) is 92%; on HDAC-3, 82 ± 1.2%; against HDAC-4 it was 5 ± 0.4%; against HDAC-5, 5 ± 0.5%; at HDAC-6, 3 ± 0.4%; against HDAC-8, 13 ± 1%. Besides, the inhibition at 10 µM against HDAC-11 came out at 15 ± 0.6%. This compound also displayed an HDAC-1 inhibition at HDAC-1 (compound at 10 µM, 10 µM) of 93 ± 1.0%. The same compound yielded an IC50 at HDAC-1 (substrate 10 µM) of 440 nM.
